Source: BindingDB's records for patent US12383533 (Frost Biologic, 2025)

Target: Tubulin alpha-1A chain (Sus scrofa, UniProt P02550)
Assay: Not found
Text: Not found

Chain of Tubulin alpha-1A chain (P02550 whole entry, looked up): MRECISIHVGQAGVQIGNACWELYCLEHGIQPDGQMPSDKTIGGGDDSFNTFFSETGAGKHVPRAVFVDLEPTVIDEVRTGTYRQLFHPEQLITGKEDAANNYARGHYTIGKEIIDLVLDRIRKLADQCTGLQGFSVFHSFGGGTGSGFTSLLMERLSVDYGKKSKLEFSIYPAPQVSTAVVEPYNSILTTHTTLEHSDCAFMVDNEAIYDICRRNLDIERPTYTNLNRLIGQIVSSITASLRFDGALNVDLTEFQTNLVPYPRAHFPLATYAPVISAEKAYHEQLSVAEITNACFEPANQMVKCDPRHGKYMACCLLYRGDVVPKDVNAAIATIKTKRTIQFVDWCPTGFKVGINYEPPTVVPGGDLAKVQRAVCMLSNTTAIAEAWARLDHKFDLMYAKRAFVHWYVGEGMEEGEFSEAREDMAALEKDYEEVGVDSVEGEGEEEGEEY

Cc1ncc(C(=O)Nc2ncc(-c3cccc(NC4CC4)c3)cc2F)cn1 [US12383533, Compound 68]
IC50: 1980 nM
